Data on 22 compounds can be found in BindingDB's records for patent US20250066349 (Prothena Biosciences, 2025).

Where only a bound is given, the exact number is not on record here.

In the assay the target is Dual specificity tyrosine-phosphorylation-regulated kinase 1A (Homo sapiens, UniProt Q13627). Put plainly: DYRK1A Inhibition Assay. Here is the method:
1. Add 5 μL enzyme & substrate mixture to each well in Column 2-23 and A24-H24 wells of the 384-well assay plate;2. Add 5 μL 0% Phosphorylation control to A1-H1 and I24-P24 wells of the assay plate;3. Add 5 μL 100% Phosphorylation control to I1-P1 wells of the assay plate;4. Spin the assay plate (1000 rpm, 1 minute @23° C.);5. Incubate enzyme with compounds for 15 minutes at 23° C.;6. Add 5 μL ATP solution to each well of the assay plate;7. Spin the plate (1000 rpm, 1 minute @23° C.);8. Incubate the assay plate for 90 minutes at 23° C.;9. Add 10 μL Development reagent A to each well of the assay plate;10. Centrifuge the plate at 1000 rpm about 15 seconds and seal a film over assay plate. Incubate the assay plate for 30 minutes at 23° C.11. Read assay plates on Envision (see Tables A-D).
Usually IC50 stands for the concentration at which inhibition is half-maximal. High values mean a need for much substance, low ones inhibition by little substance. `Cn1cc(-c2ccc3cnc4[nH]cc(C5CCC5)c4c3c2)cn1` [US20250066349, Compound I.1] had an IC50 below 10 nM.
As for `Cc1ncc(-c2ccc3cnc4[nH]cc(C5CCCCC5)c4c3c2)s1` [US20250066349, Compound I.6], the IC50 is below 10 nM.
As for `CN1CCc2c([nH]c(=O)c3cc(C4CCOCC4)ccc23)C1` [US20250066349, Compound IV.22], the IC50 is above 5000 nM.
In turn, `N#Cc1ccc2c(c1)ncc1c(Oc3cccc(Cl)c3)cncc12` [US20250066349, Compound IV.21] displayed an IC50 above 5000 nM.
`Cn1ncc2c3ccc(C#N)cc3ncc21` [US20250066349, Compound IV.14]: the IC50 is below 500 nM.
As for `CN1CCc2c([nH]c(=O)c3cc(C4=CCOCC4)ccc23)C1` [US20250066349, Compound IV.23], the figure is above 5000 nM.
Regarding `CN1CCC(C(=O)Nc2ncc(-c3ccc4oncc4c3)s2)CC1` [US20250066349, Compound III.4], the IC50 is below 50 nM.
For `Cn1cc(-c2ccc3cnc4[nH]cc(C5CCC(C(=O)O)CC5)c4c3c2)cn1` (configuration not stated) [US20250066349, Compound I.24], the IC50 is below 10 nM.
In turn, `COC1CC=C(c2n[nH]c3ncc4ccc(-c5cnn(C)c5)cc4c23)CC1` (configuration not stated) [US20250066349, Compound I.8] had an IC50 below 10 nM.
In the case of `Cn1cc(-c2ccc3cnc4[nH]cc(C5CCC(O)CC5)c4c3c2)cn1` (configuration not stated) [US20250066349, Compound I.14], the IC50 is below 10 nM.
With `COc1ccc(-c2ccc3c4c([nH]c(=O)c3c2)CN(C)CC4)cc1OC` [US20250066349, Compound IV.24], the IC50 is above 5000 nM.
For `COC1CCC(c2c[nH]c3ncc4ccc(-c5cnn(C)c5)cc4c23)CC1` (configuration not stated) [US20250066349, Compound I.13] the value was below 10 nM; for `COC1CC(c2c[nH]c3ncc4ccc(-c5cnn(C)c5)cc4c23)C1` (configuration not stated) [US20250066349, Compound I.23], below 10 nM; for `Cn1cc(-c2ccc3c(-c4ccc5cnn(C)c5c4)cnn3c2)ccc1=O` [US20250066349, Compound II.1], below 10 nM.
The compound `CN(C)CCOc1ccc2c(c1)[nH]c(=O)c1cc(-c3ccncc3)cn12` [US20250066349, Compound IV.18] yielded an IC50 below 500 nM.
For `Cc1c(C2CCOCC2)[nH]c2ncc3ccc(-c4cnn(C)c4)cc3c12` [US20250066349, Compound I.51] the value was below 10 nM.
Turning to `CN1CCC(C(=O)Nc2ncc(-c3ccc4c(c3)COC4=O)s2)CC1` [US20250066349, Compound III.2], the IC50 was below 50 nM.
As for `Cn1cc(-c2ccc3cnc4[nH]cc(C5CC(O)C5)c4c3c2)cn1` (configuration not stated) [US20250066349, Compound I.18], the figure is below 10 nM; as for `CC(=O)N1CCc2c(cnc3[nH]cc(C4CCC4)c23)C1` [US20250066349, Compound IV.1], below 500 nM.
For the compound `CC(=O)N1CCc2c(cnc3[nH]cc(-c4ccc5c(c4)OCO5)c23)C1` [US20250066349, Compound IV.6], the IC50 is below 500 nM.
For `COC(=O)c1ccc2c(cnc3[nH]cc(-c4ccc(F)cc4)c32)c1` [US20250066349, Compound I.4] the value was above 1000 nM.
As for `Cn1cc(-c2ccc3c(-c4ccc5cnsc5c4)cnn3c2)ccc1=O` [US20250066349, Compound II.2], the figure is below 10 nM.
